From patent publication US7244614B2, “Fusion proteins and assays for molecular binding” (Cellomics, Inc., priority 2001, dated 2007)

Tests used:
Assay type in all cases: cell-based
[1] = tested on: c-Jun N-terminal kinase (JNK); assay: c-Jun N-terminal protein kinase fusion protein redistribution in transfected HeLa cells, ArrayScan II; conditions: for change in localization of the fusion protein to the cytoplasm upon activation: serum starved 24 h, anisomycin 500 nM, sorbitol 300 mM, TNF 100 ng/ml or staurosporine 1 uM, 1 hour
Description: It is constructed such that the detection domain is a GFP, the first localization domain is a modified SV40 T antigen NLS, the second localization domain is an NES from MAPKAP2, and the binding domain is the JNK binding domain from c-jun. […] This example illustrates the detection and monitoring of a binding event induced to occur within the cell.
As shown below, this fusion protein was constructed using GFP, a modified nuclear localization signal from SV40 T antigen, the sequence from Proline 315 to Serine 362 of MAPKAP2 (Genbank accession number X76850), which includes a nuclear export signal (between D^328 to E^351, SEQ ID NO:317), and the sequence from P^30 to L^60 of c-Jun,(accession number J04111), which serves as the JNK binding domain.
Protocol: HeLa cells were transiently transfected with the fusion protein. Cells were serum starved for 24 hours prior to treatment. Cells were exposed to test compounds known to induce cell stress, including anisomycin (500 nM), sorbitol (300 mM), TNF (tumor necrosis factor, 100 ng/ml), or staurosporine (1 uM), for 1 hour. For inhibitor treatment, cells were pretreated for 2 hours with 10 uM inhibitor then treated with anisomycin, in parallel with non-inhibitor-treated cells. Cells were then treated with 3.7% formaldehyde & Hoechst 33342 for 20 minutes to fix and stain the nuclei, and then washed. Data was collected on ArrayScan II® (Cellomics, Inc. Pittsburgh, Pa.).

MAPK [2] = assay: MAPK binding fusion protein (second variant, SV40 NLS) redistribution in transfected HeLa cells, ArrayScan II; conditions: serum starved 24 h, serum 20% or PMA 200 nM, 2 hours
Method: A variant of this MAPK binding fusion protein was also prepared. This fusion protein was constructed using a GFP, a nuclear localization signal from the SV 40 large T antigen (SEQ ID NO:145, Genbank accession number J02400), specifically P^126 to V^132, the sequence from Glutamic Acid 327 to Isoleucine 353 of MAPKAP2 (Genbank accession number X76850), which includes a nuclear export signal (between D^328 to E^351, SEQ ID NO:317), and the MAPK binding domain from RSK1, spanning from S^718 to T^733 (Genbank accession number L07597).
Protocol: HeLa cells were transiently transfected with the fusion protein. Cells were serum starved for 24 hours prior to treatment. Cells were then exposed to PMA (1.5 nM) or sorbitol (200 mM) for 1 hour. For inhibitor treatment, cells were pretreated for 2 hours with 10 uM inhibitor, and then treated with PMA, in parallel with non-inhibitor-treated cells. Cells were then treated with 3.7% formaldehyde & Hoechst 33342 for 20 minutes to fix and stain the nuclei, and then washed. Data was collected on ArrayScan II® (Cellomics, Inc. Pittsburgh, Pa.). […] Most, if not all, of the fusion protein was affected. The change in distribution was inhibitable by pretreatment of 10 uM PD98059, a specific inhibitor of MAPK activation, but not by SB203580, a specific inhibitor of p38 MAPK activation. […]

[3] = tested on: catalytic domain of cAMP-dependent protein kinase (cPKA); assay: cAMP-dependent protein kinase interaction fusion protein redistribution (nucleus/cytoplasm) in transfected HeLa cells, ArrayScan II; conditions: serum starved 24 h, forskolin 2 h or PMA 1 h
Description: In this example, a fusion protein for detecting the availability for specific binding of the catalytic domain of cAMP-dependent protein kinase (cPKA), the protein of interest, is based on the distribution of the fusion protein between the cytoplasm and nucleus. It is constructed such that the detection domain is a GFP, the first localization domain is the NLS from SV40 large T-antigen, the second localization domain is the NES from MAPKAP2, and the binding domain is from CREB. The NLS and the binding domain are separated by 2 amino acids. The fusion protein is introduced into cells via DNA transfection or retrovirus infection. The catalytic domain cPKA binds to the regulatory domain of PKA (rPKA) in the absence of cAMP. With an increase in the concentration of cAMP, cPKA dissociates from rPKA, enabling cPKA to bind to the fusion protein. Operationally, the binding of cPKA to the binding domain blocks the localization of this fusion protein into the nucleus. […] The ratio of these intensities can be readily measured. This fusion protein can detect cPKA binding in either the nucleus or cytoplasm. Contacting the cell with a compound that causes a separation of cPKA from rPKA, such as forskolin, via an increase cAMP, will shift the distribution of the fusion protein from the nucleus to the cytoplasm. […]

MAPK [4] = assay: MAPK binding fusion protein (first variant, mutated n-myc NLS) redistribution in transfected HeLa cells, ArrayScan II; conditions: for change in localization of the fusion protein to the cytoplasm upon activation: serum starved 24 h, PMA 1.5 nM or sorbitol 200 mM, 1 hour; for inhibition of the change in distribution of the fusion protein: 2 hours pretreatment with 10 uM inhibitor, then PMA
Description: In this example, a fusion protein for detecting the availability for specific binding of MAPK, the protein of interest, is based on the distribution of the fusion protein between the cytoplasm and nucleus. It is constructed such that the detection domain is a GFP, the first localization sequence is a mutated NLS from n-myc, the second localization sequence is an NES from MAPKAP2, and the binding domain is the MAPK binding domain from RSK-1. The NLS and MAPK binding domain are separated by 2 amino acids. Operationally, the binding of MAPK to the binding domain blocks the localization of this fusion protein into the nucleus. […] Contacting the cell with a compound that activates MAPK, such as PMA or serum, will activate MAPK by inducing a dissociation of MAPK from MEK1, thus making MAPK available for binding to the RSK-1 binding domain in the fusion protein, and will shift the distribution of the fusion protein from the nucleus to the cytoplasm.
As shown below, this fusion protein was constructed using a GFP, a mutated nuclear localization signal from n-myc, based on human n-myc (Genbank accession number Y00664), the sequence from Proline 315 to Alanine 361 of MAPKAP2 (Genbank accession number X76850), which includes a nuclear export signal (between D^328 to E^351, SEQ ID NO:317), and the MAPK binding domain from RSK1 spanning from S^718 to T^733 (Genbank accession number L07597).
Protocol: HeLa cells were transiently transfected with the fusion protein. Cells were serum starved for 24 hours prior to treatment. Cells were then exposed to PMA (1.5 nM) or sorbitol (200 mM) for 1 hour. For inhibitor treatment, cells were pretreated for 2 hours with 10 uM inhibitor, and then treated with PMA, in parallel with non-inhibitor-treated cells. Cells were then treated with 3.7% formaldehyde & Hoechst 33342 for 20 minutes to fix and stain the nuclei, and then washed. Data was collected on ArrayScan II® (Cellomics, Inc. Pittsburgh, Pa.). […] Most, if not all, of the fusion protein was affected. The change in distribution was inhibitable by pretreatment of 10 uM PD98059, a specific inhibitor of MAPK activation, but not by SB203580, a specific inhibitor of p38 MAPK activation. Second Variant Protocol: HeLa cells were transiently transfected with the fusion protein. Cells were serum starved for 24 hours prior to treatment. Cells were exposed to serum (20%) or PMA (200 nM) for 2 hours. Cells were then treated with 3.7% formaldehyde & Hoechst 33342 for 20 minutes to fix and stain the nuclei, and then washed. Data was collected on ArrayScan II® (Cellomics, Inc. Pittsburgh, Pa.).

SMILES	change in localization of the fusion protein to the cytoplasm upon activation [1]	change in localization of the fusion protein to the cytoplasm upon activation (MAPK [4])	inhibition of the change in distribution of the fusion protein (MAPK [4])	other results
CN[C@@H]1C[C@H]2O[C@@](C)([C@@H]1OC)n1c3ccccc3c3c4c(c5c6ccccc6n2c5c31)C(=O)NC4 [staurosporine]	led to a change in localization of the fusion protein to the cytoplasm	–	–	–
COc1ccc(C[C@H]2NC[C@H](O)[C@H]2OC(C)=O)cc1 [anisomycin]	led to a change in localization of the fusion protein to the cytoplasm	–	–	–
CCCCCCCCCCCCCC(=O)O[C@@H]1[C@@H](C)[C@@]2(O)[C@@H](C=C(CO)C[C@]3(O)C(=O)C(C)=C[C@@H]23)[C@@H]2C(C)(C)[C@]12OC(C)=O [PMA, Phorbol-12-Myristate-13-Acetate]	–	led to a change in localization of the fusion protein to the cytoplasm	–	change in localization of the fusion protein to the cytoplasm upon activation (MAPK [2]): led to a change in localization of the fusion protein to the cytoplasm; change in localization of the fusion protein to the cytoplasm upon activation [3]: led to a change in localization of the fusion protein to the cytoplasm
OC[C@@H](O)[C@@H](O)[C@H](O)[C@@H](O)CO [sorbitol]	–	did not induce a change in the localization of the fusion protein	–	–
C[S+]([O-])c1ccc(-c2nc(-c3ccncc3)c(-c3ccc(F)cc3)[nH]2)cc1 (stereo not drawn) [SB203580]	–	–	not	effect of inhibitor pretreatment on the change in distribution of the fusion protein ([1]; 2 hours pretreatment with 10 uM inhibitor, then anisomycin): not affected
COc1cccc(-c2cc(=O)c3ccccc3o2)c1N [PD98059]	–	–	inhibitable	–
